Here are results for one substance from publication PMC7110753, “Dafachronic acid and temperature regulate canonical dauer pathways during Nippostrongylus brasiliensis infectious larvae activation” (Parasites & Vectors, 2020).

One assay deals with Cel-DAF-12 (DAF-12) (Caenorhabditis elegans, UniProt G5EFF5). The assay is described as follows: co-transfection luciferase reporter assay in HEK293 cells (agonist, dose response in Fig. 1b). The class given is cell-based.
Assay [1] relates to Nbr-DAF-12 (DAF-12 nuclear hormone receptor). The assay is described as follows: co-transfection luciferase reporter assay in HEK293 cells (agonist).

Cel-DAF-12 (DAF-12), sequence (G5EFF5 whole entry): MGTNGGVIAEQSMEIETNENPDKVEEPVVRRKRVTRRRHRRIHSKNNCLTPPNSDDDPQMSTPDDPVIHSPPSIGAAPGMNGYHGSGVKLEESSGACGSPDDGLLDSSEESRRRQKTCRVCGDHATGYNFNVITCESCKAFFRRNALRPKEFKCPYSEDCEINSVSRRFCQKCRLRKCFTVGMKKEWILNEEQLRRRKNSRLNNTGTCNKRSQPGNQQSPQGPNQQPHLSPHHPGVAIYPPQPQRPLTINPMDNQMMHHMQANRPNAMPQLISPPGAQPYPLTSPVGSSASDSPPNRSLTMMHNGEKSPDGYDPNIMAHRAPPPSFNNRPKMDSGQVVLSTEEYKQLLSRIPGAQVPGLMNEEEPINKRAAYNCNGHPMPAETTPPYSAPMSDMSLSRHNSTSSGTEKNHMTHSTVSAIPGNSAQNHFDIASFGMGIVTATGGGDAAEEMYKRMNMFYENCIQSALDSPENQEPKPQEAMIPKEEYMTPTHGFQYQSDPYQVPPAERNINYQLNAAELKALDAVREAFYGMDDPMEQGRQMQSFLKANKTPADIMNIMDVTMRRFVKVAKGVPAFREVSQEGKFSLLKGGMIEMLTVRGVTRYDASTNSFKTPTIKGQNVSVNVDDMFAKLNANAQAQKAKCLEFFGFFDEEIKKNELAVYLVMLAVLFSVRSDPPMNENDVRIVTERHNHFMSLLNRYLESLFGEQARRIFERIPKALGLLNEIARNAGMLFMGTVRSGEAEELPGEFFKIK

One may read the EC50 as the concentration giving half of the maximal effect. Lower therefore signals a more potent agent. Take Δ7-dafachronic acid: the “co-transfection luciferase reporter assay in HEK293 cells (agonist, dose respons)” value at Cel-DAF-12 (DAF-12) was “responds more weakly to Δ7-dafachronic acid than DAF-12 from either the canine hookworm A. caninum (Aca-DAF-12) or the free-living C. elegans”. This substance displayed a concentration giving a half-maximal response (EC50) in assay [1] of 115 nM.
